Experimental data as given in publication PMC10454728, “A Comparative Study on the Lysosomal Cation Channel TMEM175 Using Automated Whole-Cell Patch-Clamp, Lysosomal Patch-Clamp, and Solid Supported Membrane-Based Electrophysiology: Functional Characterization and High-Throughput Screening Assay Development” (International Journal of Molecular Sciences, 2023).
One block for each compound: values may come before it.

Columns and labels:
TMEM175 [1] = biological target: T1, TMEM175 (Homo sapiens, UniProt Q9BSA9); test: SSME K+ flux on TMEM175 lysosomes (SURFE2R N1): pH, pH gradient, intra-lysosomal application
T1 sequence (Q9BSA9 1-504): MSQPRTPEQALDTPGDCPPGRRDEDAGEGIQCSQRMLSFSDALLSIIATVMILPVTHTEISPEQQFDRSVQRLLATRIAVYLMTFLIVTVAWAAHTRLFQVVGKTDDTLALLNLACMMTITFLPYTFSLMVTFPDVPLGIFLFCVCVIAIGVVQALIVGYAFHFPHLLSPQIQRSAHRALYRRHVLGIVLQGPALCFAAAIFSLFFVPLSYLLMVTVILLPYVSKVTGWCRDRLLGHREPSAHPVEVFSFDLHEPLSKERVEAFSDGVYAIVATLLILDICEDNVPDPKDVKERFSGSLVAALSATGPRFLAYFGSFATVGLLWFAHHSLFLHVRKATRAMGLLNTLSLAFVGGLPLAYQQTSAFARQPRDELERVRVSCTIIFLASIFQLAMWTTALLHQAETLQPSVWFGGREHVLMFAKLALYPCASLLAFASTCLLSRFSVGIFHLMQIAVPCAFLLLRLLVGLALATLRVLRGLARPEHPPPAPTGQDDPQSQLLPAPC
Procedure: A solution exchange of 50 mM Na^+ against 50 mM K^+ was used to stimulate TMEM175. Datasets for each pH were measured on different sensors. […] Average peak currents and SEM, recorded from N = 5 sensors, are shown. Imax was fixed in the subsequent fitting with the equation I = Imax − (Imax − Imin)/(1 + (c/EC50)^n). […] Both datasets—symmetrical pH 7.6 (green) and pH gradient (blue) conditions—were recorded on the same sensor, with N = 5 sensors in total. […] Currents in the presence and the absence of a pH gradient were recorded with different sensors. Each sensor was used for four measurements in the following sequence: in the absence of compound, in the presence of 100 nM compound, in the presence of 10 µM compound, and in the absence of compound (wash-out). Datasets were normalized to the peak current recorded in the absence of compound before averaging. […] Sensors were prepared with TMEM175 lysosomes that were pre-loaded via 1:10 dilution in zinc containing non-activating solution, followed by 10 pulses of sonication as described in the Methods section (Section 4.2.5). […] The three different experimental conditions shown in one graph were applied on the same sensor. Average peak currents and SD from N = 4 sensors are shown, and no normalization was applied.
To test whether the pH is a relevant parameter affecting the efficacy of compounds, we tested the effect of compounds on TMEM175 currents under different pH conditions using the SURFE^2R N1 (Figure 9B–D).
To examine this, we conducted SSME experiments utilizing lysosomes that were pre-loaded with varying concentrations of zinc (Figure 9E). This enabled us to investigate the effects of zinc on TMEM175 activity when it interacts with the lysosomal side of TMEM175, closely simulating the conditions observed in whole-cell APC experiments (Figure 7E). […]
Datasets recorded with the SURFE^2R N1 are usually obtained with the same sensor, i.e., all concentration-dependent datapoints are obtained by sequential measurements. […]

[2] = system: control lysosomes expressing endogenous TMEM175; test: SSME off-target compound effects on control lysosomes (SURFE2R 96SE); format: biochemical, human
Excerpt: ; (A) Dose-response curves for SC-79; (B) Dose-response curves for cluster 1 compounds showing similar effects with all three technologies; (C) Dose-response curves for cluster 2 compounds showing no activity in LPC, but higher activity in APC; (D) Dose-response curves for cluster 3 compounds showing high activity in LPC, but lower activity in APC; For all assay technologies, datapoints were normalized to the current recorded before compound addition and averaged across at least N = 3 individual experiments. For clarity reasons, the SEM is not shown; the average relative SEM after averaging datapoints recorded with two highest compound concentrations is 35.6% for LPC data and 2.9% for SSME data. The APC data were acquired using a voltage application protocol distinct from the one depicted in Figure 7B, as described in the Methods section. Datasets were not corrected for artifacts (as observed in SSME) or off-target compound effects. For SSME data, we indicate the difference in the peak current when applying the four highest concentrations of a compound to control lysosomes (to assess off-target effects) compared to the current recorded with TMEM175 lysosomes prior to compound addition. […] Considerable off-target compound effects are observed when the given percentage approaches the percentage of enhancement recorded with the TMEM175 sample at the given compound concentration. […] . When an EC50 value was determined from the fit, it is highlighted by a vertical dotted line. […]
We also investigated the effect of the eight test compounds on the artifact currents recorded with control lysosomes using the SURFE^2R 96SE.
Artifact currents are typically in the range of −1 nA, while TMEM175 sample currents are +4 nA (Figure 1K). […] This corresponds to 3% to 30% of the current recorded with the TMEM175 sample in the absence of the compound. […]
a. For each single well, we performed an in-well normalization: the artifact corrected peak current obtained using a given condition is devided by the artifact corrected reference peak current recorded within the same well. b. […]

TMEM175 [3] = biological target: T1, TMEM175; test: Whole-cell automated patch-clamp (APC) Cs+ flux assay, SyncroPatch 384i, HEK293 overexpressing TMEM175; format: cell-based; details: 50 µM, at +100 mV, Figure 7F

SMILES: Nc1ccncc1 [4-AP, 4-aminopyridine]
Effect of 4-AP, SSME (SURFE2R N1) (TMEM175 [1]; pH 4.0 (no TMEM175 activity at this pH)): no effect

SMILES: CCCCC1(C2CCCC2)Cc2cc(OCCCC(=O)O)c(Cl)c(Cl)c2C1=O (stereo not shown) [DCPIB]
Off-target effect of DCPIB on control lysosomes (SURFE2R 96SE) ([2]; 20 µM and below): did not have an effect | Off-target effect of DCPIB on control lysosomes (SURFE2R 96SE) ([2]; 60 µM DCPIB, Figure S5): off-target inhibition

Current of TMEM175 cells after enhancer, APC (TMEM175 [3]): 305 ± 39%
SMILES: CCOC(=O)C1=C(N)Oc2ccc(Cl)cc2C1C(C#N)C(=O)OCC (stereo not shown) [SC-79]

Effect at 50 µM, SSME (TMEM175 [1]; 50 µM zinc, lysosomal side (similar to external application)): did not observe any effect | IC50 (TMEM175 [1]; read-out: IC50, intra-lysosomal application, SSME (SURFE2R N1), lysosomes pre-loaded with zinc, zinc only inside): 700 ± 300 µM
SMILES: [Cl-].[Cl-].[Zn+2] [Zn, ZnCl2]
Off-target effect of zinc on control lysosomes (SURFE2R 96SE) ([2]; in-plate control, Figure S5): small off-target inhibition
